Values quoted from earlier work in patent US8629128B2, “Vitamin formulation” (priority 2005, dated 2014).

Experiments:
[1] = system: normal and malignant keratinocytes; details: normal and malignant keratinocytes in culture
[2] = oxidizing agents and sunlight
[3] = system: calcium metabolism

C=C1/C(=C\C=C2/CCC[C@]3(C)C([C@H](C)/C=C/[C@@H](O)C4CC4)CC[C@@H]23)C[C@@H](O)C[C@@H]1O (stereo partly drawn) [Calcipotriene, (5Z,7E,22E,24S)-24-cyclopropyl-9,10-secochola-5,7,10(19), 22 tetraene-1α,3β,24-triol]
induction of differentiation of keratinocytes [1]: induces the differentiation | inhibition of proliferation of keratinocytes [1]: inhibits proliferation

CC1=C(/C=C/C(C)=C/C=C/C(C)=C/C(=O)O)C(C)(C)CCC1 [Tretinoin, (all-E)-3,7-dimethyl-9-(2,6,6-trimethyl-1-cyclohexen-1-yl)-2,4,6,8-nonatetraenoic acid]
stability of tretinoin [2]: unstable in the presence of oxidizing agents and sunlight

C=C1/C(=C\C=C2/CCC[C@]3(C)[C@@H]([C@H](C)CCCC(C)(C)O)CC[C@@H]23)C[C@@H](O)C[C@@H]1O [calcitriol, 1,25-dihydroxy Vitamin D3]
effect on calcium metabolism [3]: potent effect on calcium metabolism
